Measured values taken from patent publication US9394285B2 (Pfizer Inc., priority 2013, dated 2016).

Molecular target: human AMPK (full-length γ1, β1 and α1 subunits) (Homo sapiens (Human), UniProt Q13131+Q9Y478)
Assay: AMPK in vitro biochemical assay (33P-based, SAMS peptide, PP2A dephosphorylation)
Details: for EC50: activation of phosphorylated AMPK, 33P-ATP, SAMS peptide, PP2A treatment, 4-parameter fit; for Emax: counts as % of positive control wells (enzyme, allosteric activator or AMP, PP2A and substrate), read-out: Maximum
How it was run: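 Phosphorylated full-length α1β1γ1 AMPK (E. coli-expressed, His-purified, gel-filtered) preincubated 15 min RT with compound in HEPES pH 7.5, 10 mM MgCl2 buffer, then PP2A added to dephosphorylate pThr172.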

human AMPK (full-length γ1, β1 and α1 subunits), sequence (Q13131 whole entry): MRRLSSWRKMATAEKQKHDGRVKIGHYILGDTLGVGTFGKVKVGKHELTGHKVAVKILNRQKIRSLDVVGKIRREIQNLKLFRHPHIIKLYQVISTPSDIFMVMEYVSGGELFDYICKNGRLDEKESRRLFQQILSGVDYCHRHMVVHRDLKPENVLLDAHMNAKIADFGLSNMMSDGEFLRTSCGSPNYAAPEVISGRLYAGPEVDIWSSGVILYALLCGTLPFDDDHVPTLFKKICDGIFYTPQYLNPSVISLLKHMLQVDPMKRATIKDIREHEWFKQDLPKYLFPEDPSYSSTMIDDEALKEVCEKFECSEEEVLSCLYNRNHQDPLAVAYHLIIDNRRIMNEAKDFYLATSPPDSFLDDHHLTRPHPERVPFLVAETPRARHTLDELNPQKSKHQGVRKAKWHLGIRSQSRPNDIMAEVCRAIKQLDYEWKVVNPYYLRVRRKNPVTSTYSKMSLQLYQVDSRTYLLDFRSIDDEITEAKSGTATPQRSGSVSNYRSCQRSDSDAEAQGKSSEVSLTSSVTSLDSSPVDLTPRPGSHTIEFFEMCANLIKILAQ
human AMPK (full-length γ1, β1 and α1 subunits), sequence (Q9Y478 whole entry): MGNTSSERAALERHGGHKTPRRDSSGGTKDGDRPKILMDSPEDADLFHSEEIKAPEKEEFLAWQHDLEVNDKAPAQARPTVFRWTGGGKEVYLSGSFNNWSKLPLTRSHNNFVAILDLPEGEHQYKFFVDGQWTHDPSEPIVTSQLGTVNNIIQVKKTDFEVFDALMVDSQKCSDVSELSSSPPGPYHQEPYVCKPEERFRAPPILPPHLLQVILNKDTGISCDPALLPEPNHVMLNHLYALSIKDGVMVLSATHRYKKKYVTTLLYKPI
human AMPK (full-length γ1, β1 and α1 subunits), sequence (P54619 whole entry partner): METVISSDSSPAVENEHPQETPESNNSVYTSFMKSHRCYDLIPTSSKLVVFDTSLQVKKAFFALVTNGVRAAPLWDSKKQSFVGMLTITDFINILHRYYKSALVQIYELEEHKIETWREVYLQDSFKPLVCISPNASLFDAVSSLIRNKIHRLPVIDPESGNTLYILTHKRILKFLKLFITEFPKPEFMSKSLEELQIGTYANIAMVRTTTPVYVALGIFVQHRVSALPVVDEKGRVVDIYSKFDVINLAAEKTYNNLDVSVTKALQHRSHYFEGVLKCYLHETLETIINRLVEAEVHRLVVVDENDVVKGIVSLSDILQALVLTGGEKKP

Row | SMILES | EC50 [nM] | Emax [%]
1 | O=C(O)c1c[nH]c2cc(Cl)c(-c3ccc(CCCO)cc3)cc12 [Example 80, 6-chloro-5-[4-(3-hydroxypropyl)phenyl]-1H-indole-3-carboxylic acid] | 182 | 108
2 | O=C(O)c1c[nH]c2cc(Cl)c(-c3ccc(OCCO)c(F)c3)cc12 [Example 81, 6-chloro-5-[3-fluoro-4-(2-hydroxyethoxy)phenyl]-1H-indole-3-carboxylic acid] | 182 | 97
3 | CNC(=O)COc1ccc(-c2cc3c(C(=O)O)c[nH]c3cc2Cl)cc1 [Example 82, 6-chloro-5-{4-[2-(methylamino)-2-oxoethoxy]phenyl}-1H-indole-3-carboxylic acid] | 216 | 86
4 | O=C(O)c1c[nH]c2cc(Cl)c(-c3ccc(C4CCCN4)cc3)cc12 (stereo not drawn) [Example 83, 6-chloro-5-[4-(pyrrolidin-2-yl)phenyl]-1H-indole-3-carboxylic acid] | 819 | 108
5 | CS(=O)(=O)N1CCCC1c1ccc(-c2cc3c(C(=O)O)c[nH]c3cc2Cl)cc1 (stereo not drawn) [Example 84, 6-chloro-5-{4-[1-(methylsulfonyl)pyrrolidin-2-yl]phenyl}-1H-indole-3-carboxylic acid] | 344 | 72
6 | O=C(O)c1c[nH]c2cc(Cl)c(-c3ccc(OCCO)cc3F)cc12 [Example 86, 6-chloro-5-[2-fluoro-4-(2-hydroxyethoxy)phenyl]-1H-indole-3-carboxylic acid] | 99.2 | 99
7 | O=C(O)c1c[nH]c2cc(Cl)c(-c3ccc4c(c3)OC[C@@H](CO)O4)cc12 [Example 87, 6-chloro-5-[(2R)-2-(hydroxymethyl)-2,3-dihydro-1,4-benzodioxin-6-yl]-1H-indole-3-carboxylic acid] | 69.5 | 112
8 | O=C(O)c1c[nH]c2cc(Cl)c(-c3ccc(C4(C(=O)O)CC4)cc3)cc12 [Example 88, 5-[4-(1-carboxycyclopropyl)phenyl]-6-chloro-1H-indole-3-carboxylic acid] | 58.1 | 78
9 | O=C(O)c1c[nH]c2cc(Cl)c(-c3ccc(OCC4COC4)cc3)cc12 [Example 89, 6-chloro-5-[4-(oxetan-3-ylmethoxy)phenyl]-1H-indole-3-carboxylic acid] | 65.4 | 99
10 | O=C(O)CCOc1ccc(-c2cc3c(C(=O)O)c[nH]c3cc2Cl)cc1 [Example 90, 5-[4-(2-carboxyethoxy)phenyl]-6-chloro-1H-indole-3-carboxylic acid] | 372 | 120
11 | O=C(O)c1c[nH]c2cc(Cl)c(-c3ccc(C4CNC4)cc3)cc12 [Example 91, 5-[4-(azetidin-3-yl)phenyl]-6-chloro-1H-indole-3-carboxylic acid] | 695 | 101
12 | O=C(O)c1c[nH]c2cc(Cl)c(-c3ccc(OCc4cccnc4)cc3)cc12 [Example 94, 6-chloro-5-[4-(pyridin-3-ylmethoxy)phenyl]-1H-indole-3-carboxylic acid] | 17.9 | 92
13 | N#Cc1cc2[nH]cc(C(=O)O)c2cc1-c1ccc(OCCO)cc1 [Example 95, 6-cyano-5-[4-(2-hydroxyethoxy)phenyl]-1H-indole-3-carboxylic acid] | 830 | 91
14 | O=C(O)c1c[nH]c2cc(Cl)c(-c3ccc(C4(CO)COC4)cc3)cc12 [Example 96, 6-chloro-5-{4-[3-(hydroxymethyl)oxetan-3-yl]phenyl}-1H-indole-3-carboxylic acid] | 58.1 | 83
15 | COc1ccc(-c2cc3c(C(=O)O)n[nH]c3cc2Cl)cc1 [Example 97, 6-Chloro-5-(4-methoxyphenyl)-1H-indazole-3-carboxylic acid] | 202 | 94
16 | COc1ccc(-c2cc3c(C(=O)O)n[nH]c3cc2C)c(F)c1 [Example 98, 5-(2-Fluoro-4-methoxyphenyl)-6-methyl-1H-indazole-3-carboxylic acid] | 1050 | 83
17 | CCOc1ccc(-c2cc3c(C(=O)O)n[nH]c3cc2Cl)cc1 [Example 99, 6-Chloro-5-(4-ethoxyphenyl)-1H-indazole-3-carboxylic acid] | 38.5 | 94
18 | CC(C)Oc1ccc(-c2cc3c(C(=O)O)n[nH]c3cc2Cl)cc1 [Example 100, 6-Chloro-5-(4-isopropoxyphenyl)-1H-indazole-3-carboxylic acid] | 190 | 80
19 | O=C(O)c1n[nH]c2cc(Cl)c(-c3ccc(-c4ccccc4O)cc3)cc12 [Example 101, 6-Chloro-5-(2′-hydroxy-[1,1′-biphenyl]-4-yl)-1H-indazole-3-carboxylic acid] | 1.8 | 61
20 | CC(C)(O)c1ccc(-c2cc3c(C(=O)O)n[nH]c3cc2Cl)cc1 [Example 102, 6-Chloro-5-(4-(2-hydroxypropan-2-yl)phenyl)-1H-indazole-3-carboxylic acid] | 33.7 | 79
21 | O=C(O)c1n[nH]c2cc(Cl)c(-c3ccc(C4(O)CCC4)cc3)cc12 [Example 103, 6-Chloro-5-(4-(1-hydroxycyclobutyl)phenyl)-1H-indazole-3-carboxylic acid] | 8.3 | 80
22 | O=C(O)c1n[nH]c2cc(Cl)c(-c3ccc(C4CCOCC4)cc3)cc12 [Example 104, 6-Chloro-5-(4-(tetrahydro-2H-pyran-4-yl)phenyl)-1H-indazole-3-carboxylic acid] | 36.5 | 88
23 | CC(=O)c1ccc(-c2cc3c(C(=O)O)n[nH]c3cc2Cl)cc1 [Example 105, 5-(4-Acetylphenyl)-6-chloro-1H-indazole-3-carboxylic acid] | 122 | 84
24 | CN1CCN(c2ccc(-c3cc4c(C(=O)O)n[nH]c4cc3Cl)cc2)CC1 [Example 106, 6-Chloro-5-(4-(4-methylpiperazin-1-yl)phenyl)-1H-indazole-3-carboxylic acid] | 73 | 94
25 | CC(=O)N1CCN(c2ccc(-c3cc4c(C(=O)O)n[nH]c4cc3Cl)cc2)CC1 [Example 107, 5-(4-(4-Acetylpiperazin-1-yl)phenyl)-6-chloro-1H-indazole-3-carboxylic acid] | 43.5 | 60
26 | CC(O)(c1ccc(-c2cc3c(C(=O)O)n[nH]c3cc2Cl)cc1)C(F)(F)F (stereo not drawn) [Example 108, 6-Chloro-5-(4-(1,1,1-trifluoro-2-hydroxypropan-2-yl)phenyl)-1H-indazole-3-carboxylic acid] | 94.4 | 92
27 | O=C(O)c1n[nH]c2cc(Cl)c(-c3ccc(CCO)cc3)cc12 [Example 109, 6-Chloro-5-(4-(2-hydroxyethyl)phenyl)-1H-indazole-3-carboxylic acid] | 82.3 | 94
28 | O=C(O)c1n[nH]c2cc(Cl)c(-c3ccc(C4CCCCC4)cc3)cc12 [Example 110, 6-Chloro-5-(4-cyclohexylphenyl)-1H-indazole-3-carboxylic acid] | 206 | 90
29 | O=C(O)c1n[nH]c2cc(Cl)c(-c3ccc(CO)cc3)cc12 [Example 111, 6-Chloro-5-(4-(hydroxymethyl)phenyl)-1H-indazole-3-carboxylic acid] | 175 | 12
30 | O=C(O)c1n[nH]c2cc(Cl)c(-c3cccc(O)c3)cc12 [Example 112, 6-Chloro-5-(3-hydroxyphenyl)-1H-indazole-3-carboxylic acid] | 1320 | 80
